Here are results for 38 compounds from patent publication US9062284B2, “Uses and detection of herbicide resistance genes for resistance to aryloxyalkanoate herbicides” (Dow ArgoSciences LLC, priority 2007, dated 2015).

The subject of test [1] is AAD-2 (v1) transformed T1 Arabidopsis. The following applies: 200 g ae/ha 2,4-D; see PCT/US2005/014737; cited from earlier work.
For test [2], the target named is T1, AAD-13 (v2) (Sphingobium herbicidovorans, UniProt Q700X4).
T1 construct: His tag (C); made in house; host or cells: E. coli BL-21, pET-26b(+)
The class given is biochemical. The text has this: In order to test a broad range of substrates, the production of succinate from the breakdown of α-ketoglutarate was detected spectrophotometricly using a protocol based on the method of Luo et. al. (2006) (Anal. Biochem. 353: 69-74). As depicted in FIG. 3, the concomitant breakdown of α-ketoglutarate and the substrate of interest via AAD-13, results in the production of succinate. Succinate is further modified to succinyl-CoA by succinyl-CoA synthetase which consumes ATP and produces ADP. ADP is then consumed by the commonly employed pyruvate kinase/lactate dehydrogenase enzymatic coupling system (Sigma P0294). The resulting conversion of NADH to NAD is monitored spectrophotometrically at 340 nm.
Identification of AAD-13 (v2) substrates in vitro was based on enzymatic activity detected during continuous spectrophotometric monitoring of a 0.2 mL reaction volume in a 96 well microtiter plate. Reaction conditions were as follows: 100 mM MOPS pH 7.0, 0.4 mM NADH, 0.4 mM ATP, 0.4 mM CoA, 1 mM PEP, 10 mM MgCl2, 0.1 mM […] (solubilized in HCl), and 0.1 mM ascorbate, 1 mM α-ketoglutarate and sufficient AAD-13 (v2) to produce an observable rate in the presence of 2,4-D. Coupling enzymes (SCS/PK/LDH) were adjusted by batch to ensure adequate coupling, and potential substrates were generally assayed at 1 mM. Alterations in substrate concentrations were made as needed to adjust for solubility. Reactions were initiated by either the addition of AAD-13 (v2) or potential substrate. The rate of substrate independent conversion of α-ketoglutarate to succinate by AAD was monitored under the above assay conditions and subtracted from the observed reaction rates. […] Additionally, propionate compounds were checked for pyruvate contamination by spectrophotometrically monitoring the consumption of NADH in the presence of compound and PK/LDH.
Reaction rates are reported as a percentage of the 2,4-D reaction rate obtained in the same sample set. […] It should be noted that faster rates can be more difficult to accurately compare depending on the percentage of available substrate consumed. […] As a result, highly efficient substrates will be properly grouped when compared to low efficiency substrates. Within the grouping of highly efficient substrates however, compounds may not be quantitatively separated by a screen using single rates of substrate and AAD.

The test system of test [3] is AAD-13 (v1) transformed T1 Arabidopsis. Put plainly: Postemergence herbicide response of AAD-13 (v1) T1 Arabidopsis. As to conditions: 2,240 g ae/ha 2,4-D. Type of test: in vivo, Arabidopsis thaliana. As to the method:
Seven days after planting (DAP) and again 11 DAP, T1 plants (cotyledon and 2-4-lf stage, respectively) were sprayed with a 0.2% solution of Liberty herbicide (200 g ai/L glufosinate, Bayer Crop Sciences, Kansas City, Mo.) at a spray volume of 10 ml/tray (703 L/ha) using a DeVilbiss compressed air spray tip to deliver an effective rate of 280 g ai/ha glufosinate per application. Survivors (plants actively growing) were identified 4-7 days after the final spraying and transplanted individually into 3-inch pots prepared with potting media (Metro Mix 360). Transplanted plants were covered with humidity domes for 3-4 days and placed in a 22° C. growth chamber as before or moved to directly to the greenhouse. Domes were subsequently removed and plants reared in the greenhouse (22±5° C., 50±30% RH, 14 h light:10 dark, minimum 500 μE/m^2s^1 natural+supplemental light) at least 1 day prior to testing for the ability of AAD-13 (v1) to provide phenoxy auxin herbicide resistance.
T1 plants were then randomly assigned to various rates of 2,4-D. For Arabidopsis, 50 g ae/ha 2,4-D is an effective dose to distinguish sensitive plants from ones with meaningful levels of resistance. Elevated rates were also applied to determine relative levels of resistance (280, 560, 1120, or 2240 g ae/ha). Tables 11 and 12 show comparisons drawn to an aryloxyalkanoate herbicide resistance gene (AAD-12 (v1)) previously described in PCT/US2006/042133.
All auxin herbicide applications were made using the DeVilbiss sprayer as described above to apply 703 L/ha spray volume (0.4 ml solution/3-inch pot) or applied by track sprayer in a 187 L/ha spray volume. 2,4-D used was either technical grade (Sigma, St. Louis, Mo.) dissolved in DMSO and diluted in water (<1% DMSO final concentration) or the commercial dimethylamine salt formulation (456 g ae/L, NuFarm, St Joseph, Mo.). Dichlorprop used was commercial grade formulated as potassium salt of R-dichlorprop (600 g ai/L, AH Marks). As herbicide rates increased beyond 800 g ae/ha, the pH of the spray solution became exceedingly acidic, burning the leaves of young, tender Arabidopsis plants and complicating evaluation of the primary effects of the herbicides.
The first Arabidopsis transformations were conducted using AAD-13 (v1) (plant optimized gene). T1 transformants were first selected from the background of untransformed seed using a glufosinate selection scheme. Over 160,000 T1 seed were screened and 238 glufosinate resistant plants were identified (PAT gene), equating to a transformation/selection frequency of 0.15% which lies in the normal range of selection frequency of constructs where PAT+Liberty are used for selection. T1 plants selected above were subsequently transplanted to individual pots and sprayed with various rates of commercial aryloxyalkanoate herbicides. Table 11 compares the response of AAD-13 (v1) and control genes to impart 2,4-D resistance to Arabidopsis T1 transformants. Response is presented in terms of % visual injury 2 WAT. […] An arithmetic mean and standard deviation is presented for each treatment. The range in individual response is also indicated in the last column for each rate and transformation. PAT/Cry1F-transformed Arabidopsis served as an auxin-sensitive transformed control. The AAD-13 (v1) gene imparted herbicide resistance to individual T1 Arabidopsis plants. Within a given treatment, the level of plant response varied greatly and can be attributed to the fact each plant represents an independent transformation event. Of important note, at each 2,4-D rate tested, there were individuals that were unaffected while some were severely affected. […] At high rates the spray solution becomes highly acidic unless buffered therefore some of the injury may be attributed to the acidity of the spray solution. Arabidopsis grown mostly in the growth chamber has a very thin cuticle and severe burning effects can complicate testing at these elevated rates. […]

For test [4], the target named is T2, AAD-13 (Sphingobium herbicidovorans, UniProt Q700X4).
T2 sequence (Q700X4 with tags, fused parts or gaps): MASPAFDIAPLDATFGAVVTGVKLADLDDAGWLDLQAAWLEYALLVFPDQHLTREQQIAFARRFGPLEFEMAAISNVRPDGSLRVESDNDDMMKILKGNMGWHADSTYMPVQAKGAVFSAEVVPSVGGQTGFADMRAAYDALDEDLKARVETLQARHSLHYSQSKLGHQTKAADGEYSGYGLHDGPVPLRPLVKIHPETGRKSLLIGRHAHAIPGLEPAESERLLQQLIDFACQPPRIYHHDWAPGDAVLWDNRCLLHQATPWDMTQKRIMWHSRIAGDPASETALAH
The following applies: CNPP as substrate, pH 6.75.
Procedure: A convenient assay of AAD-13 was devised using 2-(2-chloro,4-nitrophenoxy)propionate (CNPP) as substrate. Cleavage of CNPP by AAD-13 will release 2-chloro,4-nitrophenol. This phenol has a bright yellow absorbance at 410 nm at pH 7 enabling the reaction to be followed continuously or by endpoint analysis. […] Microplate-based spectrophotometric assays were performed in a total volume of 0.2 ml 20 mM MOPS pH 6.75 containing 200 μM NH4FeSO4, 200 μM sodium ascorbate, 1 mM α-ketoglutarate, the appropriate amount of CNPP (added from a 10 mM stock made up in DMSO), and enzyme. Assays are initiated by addition of CNPP, enzyme, or α-ketoglutarate at time zero and the increase in absorbance followed for 10 min at 410 nm in a microplate reader. The first 2 min of the reaction will be used to determine initial rates.

Where [5] appears, read: substrate 1 mM, rate as percentage of 2,4-D rate in same sample set, propionate rates divided by two.
Where [6] appears, read: substrate 0.5 mM (asterisk), rate as percentage of 2,4-D rate.

Where two headings read alike, the source gives them in different places.

For orientation: Km means the substrate concentration at which the rate is half of its maximum. Usually kcat stands for the maximal rate divided by the concentration of active sites.

For the compound `O=C(O)COc1ccc(Cl)cc1Cl` [2,4-D, 2,4-dichlorophenoxyacetic acid], the overall population injury result in test [1] is on record as “about 83%”. Besides, the “% of 24D activity” value in test [2] (setting [5]) is listed as 100%. Further, in test [3], the population injury average entry is “about 15%”. `Nc1c(Cl)ccc(OCC(=O)O)c1Cl` [3-amino 24D]: the “% of 24D activity” value in test [2] (setting [5]) came to 151%. On to `O=C(O)CCCOc1ccc(Cl)cc1Cl` [24DB], for which the “% of 24D activity” value in test [2] (setting [5]) was 2%. Consider `CC(Oc1ccc([N+](=O)[O-])cc1Cl)C(=O)O` (centres unmarked) [CNPP], for which, in test [4], the Km was 31 ± 5.5 µM and the catalytic constant (kcat) was 0.27 ± 0.0132 s⁻¹. On to `Cc1cc(Cl)ccc1OC(C)C(=O)O` (centres unmarked) [Mecoprop], for which the “% of 24D activity” value in test [2] (setting [5]) was found to be 169%. Consider `C[C@@H](Oc1ccc(Oc2nc3ccc(Cl)cc3o2)cc1)C(=O)O` [R-fenoxaprop], for which the “% of 24D activity” value in test [2] (setting [5]) came out at 2%. Turning to `C[C@H](Oc1ccc(Cl)cc1Cl)C(=O)O` [S-dichlorprop], the “% of 24D activity” value in test [2] (setting [5]) is given as 233%.

In the case of `CC(Oc1nc(F)c(Cl)c(N)c1Cl)C(=O)O` (stereo not drawn) [alpha methyl floroxypyr], the “% of 24D activity” value in test [2] (setting [5]) is listed as 43%.

With `CC(Oc1ccc(C(=O)c2ccc(Cl)cc2)cc1)C(=O)O` (centres unmarked) [compound 8563], the “% of 24D activity” value in test [2] (setting [5]) is reported as 64%. Still for that read-out and setting: the same measure for `CC(Oc1ncc(Cl)cc1Cl)C(=O)O` (centres unmarked) [compound 66357]: 24%; for `CC(Oc1ccc(C(=O)c2ccccc2)cc1)C(=O)O` (centres unmarked) [compound 66732]: greater than 100%; for `CC(Oc1ccc(F)cc1Cl)C(=O)O` (centres unmarked) [compound 83293]: 106%. For the compound `CC(Oc1nc(F)c(Cl)cc1Cl)C(=O)O` (centres unmarked) [compound 91767], the “% of 24D activity” value in test [2] (setting [5]) stood at 88%. Take `O=C(O)COCc1ccccc1` [compound 93116]: the “% of 24D activity” value in test [2] (setting [5]) came out at 128%. On the same count and under the same terms, the same measure for `O=C(O)COc1nc(F)c(Cl)cc1Cl` [compound 93833]: 33%.

On to `CC(OCc1ccccc1)C(=O)O` (centres unmarked) [compound 118942], for which the “% of 24D activity” value in test [2] (setting [5]) turned out to be 46%.

Regarding `O=C(O)COc1ccc(F)cc1Cl` [compound 124988], the “% of 24D activity” value in test [2] (setting [5]) is listed as 44%. On to `O=C(O)/C=C/c1ccccc1Cl` [compound 187507], for which the “% of 24D activity” value in test [2] (setting [5]) is on record as 10%. Same read-out and setting: to `CCCC(Oc1cc(Cl)c(Cl)cc1Cl)C(=O)O` (centres unmarked) [compound 188495] belongs 19%; to `CCCCOC(C)C(=O)O` (centres unmarked) [compound 191716], 66%.

For the compound `O=C(O)COc1ccc(C(=O)c2ccccc2)cc1` [compound 193908], the “% of 24D activity” value in test [2] (setting [5]) is listed as 56%. In the case of `O=C(O)c1cc2cc(Br)cc(Br)c2o1` [compound 198167], the “% of 24D activity” value in test [2] (setting [5]) is listed as “Not Detected”. In the case of `O=C(O)COc1ccc(Cl)c2cccnc12` [compound 204558], the “% of 24D activity” value in test [2] (setting [6]) is reported as “Not Detected”. As to `O=C(O)c1cc2cc([N+](=O)[O-])ccc2o1` [compound 238166], the “% of 24D activity” value in test [2] (setting [6]) is “Not Detected”. For the compound `O=C(O)COC(c1ccccc1)C(F)(F)F` (centres unmarked) [compound 470901], the “% of 24D activity” value in test [2] (setting [5]) is given as 30%. In the case of `O=C(O)COCc1ccc(Cl)cc1` [compound 475726], the “% of 24D activity” value in test [2] (setting [5]) is 112%. Regarding `C=C(C)CCOCC(=O)O` [compound 571320], the “% of 24D activity” value in test [2] (setting [5]) amounted to 39%.

Consider `CC(Oc1nn(-c2ccccc2)c(-c2ccccc2)c1Cl)C(=O)O` (centres unmarked) [compound 657338], for which the “% of 24D activity” value in test [2] (setting [5]) worked out at 5%. For the compound `CC(Oc1nn(-c2ccccc2)c(-c2ccccc2)c1Br)C(=O)O` (centres unmarked) [compound 657339], the “% of 24D activity” value in test [2] (setting [5]) is given as 5%.

With `O=C(O)COc1ccc(C(=O)c2ccc(Cl)cc2)c(Cl)c1Cl` [compound 761310], the “% of 24D activity” value in test [2] (setting [6]) is reported as “Not Detected”. In the case of `O=C(O)c1cc2cc(Cl)cc(Cl)c2o1` [compound 11077344], the “% of 24D activity” value in test [2] (setting [6]) is listed as “Not Detected”. With `O=C(O)c1cc2cc(Cl)ccc2o1` [compound 11077347], in test [2] (setting [6]), the “% of 24D activity” value is on record as “Not Detected”. With `CC(Oc1ccc(Cl)c(N)c1Cl)C(=O)O` (centres unmarked) [compound 11113675], the “% of 24D activity” value in test [2] (setting [5]) worked out at 113%. Regarding `O=C(O)COc1cc(N2C(=O)C3=C(CCCC3)C2=O)c(F)cc1Cl` [compound 11213586], the “% of 24D activity” value in test [2] (setting [5]) is reported as 2%. Still for that read-out and setting: to `O=C(O)/C=C\c1ccccc1Cl` [compound 11453845] belongs 13%; to `CC(Oc1ccc(Oc2ccc(Cl)cc2Cl)cc1)C(=O)O` (centres unmarked) [diclofop], greater than 100%. On the same count and under the same terms, to `CC(Oc1ccc(Oc2ccc(C(F)(F)F)cn2)cc1)C(=O)O` (centres unmarked) [fluazifiop] belongs roughly 50%; to `CC(Oc1ccc(Cl)cc1Cl)C(=O)O` (centres unmarked) [r,s dichlorprop, dichlorprop], 195%.
